Consider 18 molecules from patent US8178695B2, “4-(3-aminobenzoyl)-1,3-dimethylpyrazoles and their use as herbicides” (Bayer Cropscience AG, priority 2007, dated 2012).

Format in all cases: in vivo
Test [1] relates to ALOMY. Description: Pre-emergence herbicidal action against harmful plants. The settings on record: Comparative table 6, pre-emergence, 320 g a.i./ha, visual scoring 3-4 weeks after treatment. The text has this:
(§1) Seeds or rhizome pieces of mono- and dicotyledonous harmful plants are placed in sandy loam in pots of a diameter of 9 to 13 cm and covered with soil. The herbicides, formulated as emulsifiable concentrates or dusts, are applied to the surface of the covering soil in the form of aqueous dispersions or suspensions or emulsions at an application rate of 300 to 800 l of water/ha (converted), at various dosages. For further cultivation of the plants, the pots are then kept in a greenhouse under optimum conditions. The visual scoring of the damage to the harmful plants is carried out 3-4 weeks after the treatment. As shown by the results of these comparative tables, the selected compounds according to the invention have better herbicidal activity against a broad spectrum of economically important mono- and dicotyledonous harmful plants than the compounds disclosed in the prior art.

The subject of test [2] is Matricaria inodora. Described as above. The settings on record: Comparative table 6, pre-emergence, 320 g a.i./ha, visual scoring 3-4 weeks after treatment.
Text: as §1

Test [3] concerns Amaranthus retroflexus. The description is as above. Conditions: visual scoring 3-4 weeks after treatment.
Text: as §1

Test [4] relates to Cyperus serotinus. The test is described as follows: Post-emergence herbicidal action against harmful plants. The settings on record: Comparative table 3, post-emergence, 80 g a.i./ha, scored after 3 to 4 weeks. On the procedure: (§2) Seeds of mono- and dicotyledonous harmful plants are placed in sandy loam in cardboard pots, covered with soil and grown in the greenhouse under good growth conditions. Two to three weeks after sowing, the test plants are treated at the three-leaf stage. The compounds according to the invention, which are formulated as wettable powders or as emulsion concentrates, are sprayed at an application rate of 600 to 800 l of water/ha (converted) in a dosage stated in tables 1 to 5 onto the surface of the green plant parts. After the test plants have been left to stand in the greenhouse for 3 to 4 weeks under optimum growth conditions, the action of the compounds according to the invention is scored in comparison to compounds disclosed in the prior art. As shown by the results of these comparison tables, the selected compounds according to the invention have better herbicidal activity against a broad spectrum of economically important mono- and dicotyledonous harmful plants than the compounds disclosed in the prior art.

Test [5] has as its system Amaranthus retroflexus. The test is described as above. The settings on record: 80 g a.i./ha, scored after 3 to 4 weeks. The method, then: as §2
Test [6] has as its system Setaria viridis. The test is described as above. The settings on record: 504 h, scored after 3 to 4 weeks, read-out: Activity against harmful plants SETVI; for pest or weed control at 80 g/ha: Comparative table 3, post-emergence, 80 g a.i./ha; for pest or weed control at 20 g/ha: 20 g a.i./ha. The method, then:
as §2

Test [7] deals with Viola tricolor. The description is as above. The settings on record: Comparative table 1, post-emergence, 20 g a.i./ha, scored after 3 to 4 weeks. On the procedure:
as §2

The subject of test [8] is Veronica persica. Described as above. The settings on record: 20 g a.i./ha, scored after 3 to 4 weeks. On the procedure:
as §2

Test [9] has as its system Galium aparine. Description: Pre-emergence herbicidal action against harmful plants. The settings on record: Comparative table 9, pre-emergence, 320 g a.i./ha, visual scoring 3-4 weeks after treatment.
Text: as §1

In test [10] the test system is Xanthium strumarium. Described as above. Conditions: Comparative table 9, pre-emergence, 320 g a.i./ha, visual scoring 3-4 weeks after treatment.
Text: as §1

In test [11] the test system is Lolium multiflorum. The test is described as above. Conditions: Comparative table 5, pre-emergence, 320 g a.i./ha, visual scoring 3-4 weeks after treatment.
Text: as §1

For test [12], the system named is Cyperus serotinus. The description is as above. The settings on record: Comparative table 5, pre-emergence, 320 g a.i./ha, visual scoring 3-4 weeks after treatment.
Text: as §1

Test [13] deals with Stellaria media. The description is as above. Conditions: Comparative table 5, pre-emergence, 320 g a.i./ha, visual scoring 3-4 weeks after treatment.
Text: as §1

In test [14] the test system is Viola tricolor. The description is as above. Conditions: Comparative table 7, pre-emergence, 20 g a.i./ha, visual scoring 3-4 weeks after treatment.
Text: as §1

In test [15] the test system is Setaria viridis. The description is as above. Conditions: Comparative table 7, pre-emergence, 20 g a.i./ha, visual scoring 3-4 weeks after treatment.
Text: as §1

Test [16] concerns Veronica persica. Described as above. Conditions: Comparative table 7, pre-emergence, 20 g a.i./ha, visual scoring 3-4 weeks after treatment.
Text: as §1

Test [17] concerns Abutilon theophrasti. The test is described as follows: Post-emergence herbicidal action against harmful plants. The settings on record: 20 g a.i./ha, scored after 3 to 4 weeks. On the procedure: as §2
Test [18] concerns Galium aparine. Described as above. The settings on record: Comparative table 2, post-emergence, 80 g a.i./ha, scored after 3 to 4 weeks. On the procedure: as §2
The test system of test [19] is Xanthium strumarium. The test is described as above. Conditions: Comparative table 2, post-emergence, 80 g a.i./ha, scored after 3 to 4 weeks. On the procedure: as §2
Where [20] appears, read: Comparative table 6, pre-emergence, 320 g a.i./ha.
[21] abbreviates: Comparative table 3, post-emergence.
[22] abbreviates: Comparative table 1, post-emergence.
The mark [23] stands for this setting: Comparative table 7, pre-emergence, 20 g a.i./ha.
The mark [24] stands for this setting: Comparative table 8, post-emergence.
Where [25] appears, read: Comparative table 4, post-emergence.
Setting [26] is: Comparative table 2, post-emergence.

Each structure is given as a SMILES string. Read-outs that look alike come from different tables or passages of the source.

As for `Cc1nn(C)c(O)c1C(=O)c1ccc(S(C)(=O)=O)c(NCC2CC2)c1Cl`, the “Activity against harmful plants ALOMY” value in [1] came out at 20%. Also, the “Activity against harmful plants MATIN” value in test [2] was found to be 0%. Moreover, the “Activity against harmful plants AMARE” value in test [3] (setting [20]) is reported as 90%.
As to `CCCNc1c(S(C)(=O)=O)ccc(C(=O)c2c(C)nn(C)c2O)c1Cl`, the “Activity against harmful plants CYPES” value in test [4] worked out at 50%. The “Activity against harmful plants AMARE” value in [5] (setting [21]) turned out to be 70%. Moreover, the pest or weed control at 80 g/ha in [6] stood at 70%.
`Cc1nn(C)c(O)c1C(=O)c1ccc(S(C)(=O)=O)c(N)c1C`: the “Activity against harmful plants VIOTR” value in [7] is recorded as 80%. For the same molecule, the pest or weed control at 20 g/ha in test [6] (setting [22]) was 80%. In addition, the “Activity against harmful plants VERPE” value in [8] (setting [22]) was 90%.
For `CCn1ncc(C(=O)c2ccc(S(C)(=O)=O)c(N(C)C)c2C)c1O`, in [9], the “Activity against harmful plants GALAP” value worked out at 80%. For the same molecule, the “Activity against harmful plants XANST” value in [10] was determined as 10%.
For the molecule `CCOCCNc1c(S(C)(=O)=O)ccc(C(=O)c2c(C)nn(C)c2O)c1C`, the “Activity against harmful plants LOLMU” value in test [11] turned out to be 50%. Moreover, the “Activity against harmful plants CYPES” value in test [12] was determined as 80%. Further, the “Activity against harmful plants STEME” value in test [13] is given as 90%.
On to `CCCNc1c(S(C)(=O)=O)ccc(C(=O)c2c(C)nn(C)c2O)c1C`, for which the “Activity against harmful plants CYPES” value in test [4] stood at 80%. Moreover, in test [5] (setting [21]), the “Activity against harmful plants AMARE” value was determined as 100%. Moreover, the pest or weed control at 80 g/ha in test [6] worked out at 90%.
On to `Cc1nn(C)c(O)c1C(=O)c1ccc(S(C)(=O)=O)c(N(C)CC2CC2)c1Cl`, for which, in test [3] (setting [23]), the “Activity against harmful plants AMARE” value is 20%. Further, the “Activity against harmful plants VIOTR” value in [14] was 0%. In test [15], the “Activity against harmful plants SETVI” value is 0%. For the same molecule, in test [16], the “Activity against harmful plants VERPE” value was 0%.
`Cc1nn(C)c(O)c1C(=O)c1ccc(S(C)(=O)=O)c(NCC2CC2)c1C`: the “Activity against harmful plants ALOMY” value in test [1] was 60%. For the same molecule, in test [2], the “Activity against harmful plants MATIN” value is given as 80%. For the same molecule, the “Activity against harmful plants AMARE” value in test [3] (setting [20]) came to 100%.
For `Cc1nn(C)c(O)c1C(=O)c1ccc(S(C)(=O)=O)c(N)c1Cl`, the “Activity against harmful plants VIOTR” value in test [7] is recorded as 70%. Besides, the pest or weed control at 20 g/ha in test [6] (setting [22]) was 40%. For the same molecule, in [8] (setting [22]), the “Activity against harmful plants VERPE” value was 70%.
For `COCCCNc1c(S(C)(=O)=O)ccc(C(=O)c2c(C)nn(C)c2O)c1Cl`, the “Activity against harmful plants ABUTH” value in test [17] (setting [24]) is 70%. For the same molecule, the pest or weed control at 20 g/ha in [6] (setting [24]) was 70%.
Take `Cc1nn(C)c(O)c1C(=O)c1ccc(S(C)(=O)=O)c(NC(C)C)c1Cl`: the “Activity against harmful plants ABUTH” value in [17] (setting [25]) is given as 80%. For the same molecule, the pest or weed control at 20 g/ha in test [6] (setting [25]) came out at 80%. Besides, the “Activity against harmful plants VERPE” value in test [8] (setting [25]) is given as 40%.
As for `CCOCCNc1c(S(C)(=O)=O)ccc(C(=O)c2c(C)nn(C)c2O)c1Cl`, the “Activity against harmful plants LOLMU” value in test [11] amounted to 0%. Moreover, the “Activity against harmful plants CYPES” value in [12] is recorded as 60%. Besides, in test [13], the “Activity against harmful plants STEME” value worked out at 0%.
Turning to `Cc1nn(C)c(O)c1C(=O)c1ccc(S(C)(=O)=O)c(NC(C)C)c1C`, the “Activity against harmful plants ABUTH” value in test [17] (setting [25]) stood at 90%. The pest or weed control at 20 g/ha in [6] (setting [25]) was 90%. In addition, the “Activity against harmful plants VERPE” value in [8] (setting [25]) is reported as 70%.
`CNc1c(S(C)(=O)=O)ccc(C(=O)c2c(C)nn(C)c2O)c1C`: the “Activity against harmful plants GALAP” value in test [18] was 80%. Moreover, the “Activity against harmful plants AMARE” value in test [5] (setting [26]) came out at 90%. The “Activity against harmful plants XANST” value in test [19] is recorded as 70%.
In the same order, the values of `CNc1c(S(C)(=O)=O)ccc(C(=O)c2c(C)nn(C)c2O)c1Cl` are 60%, 70% and 50%.
As to `Cc1nn(C)c(O)c1C(=O)c1ccc(S(C)(=O)=O)c(N(C)C)c1C`, the “Activity against harmful plants GALAP” value in [9] worked out at 90%. In [10], the “Activity against harmful plants XANST” value came to 100%.
Regarding `COCCCNc1c(S(C)(=O)=O)ccc(C(=O)c2c(C)nn(C)c2O)c1C`, the “Activity against harmful plants ABUTH” value in [17] (setting [24]) is reported as 90%. Besides, the pest or weed control at 20 g/ha in test [6] (setting [24]) came out at 100%.
As to `Cc1nn(C)c(O)c1C(=O)c1ccc(S(C)(=O)=O)c(N(C)CC2CC2)c1C`, in [3] (setting [23]), the “Activity against harmful plants AMARE” value amounted to 100%. The “Activity against harmful plants VIOTR” value in test [14] was found to be 100%. The “Activity against harmful plants SETVI” value in test [15] stood at 90%. Further, in test [16], the “Activity against harmful plants VERPE” value came to 90%.
